Assay results taken from ChEMBL document CHEMBL1201862, “PubChem BioAssay data set” (2004).
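Assay format: 96-well plates, 48-hour exposure. GI50 is the concentration that inhibits growth by half.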 The source made the active and inactive calls. No stated cut-off is given here; in the data, active = GI50 up to about 1.1 µM and inactive = higher.

Experiments:
Assay in all cases: NCI anticancer screen, dose series, 48 h
786-0 = system: 786-0
A498 = system: A498
A549 = system: A549
ACHN = system: ACHN
CAKI-1 = system: CAKI-1
CCRF-CEM = system: CCRF-CEM
COLO 205 = system: COLO 205
DLD-1 = system: DLD-1
DMS-273 = system: DMS-273
EKVX = system: EKVX
HCC 2998 = system: HCC 2998
HCT-116 = system: HCT-116
HCT-15 = system: HCT-15
HL-60 = system: HL-60
HOP-18 = system: HOP-18
HOP-62 = system: HOP-62
HOP-92 = system: HOP-92
HT-29 = system: HT-29
IGROV-1 = system: IGROV-1
K562 = system: K562
KM-20L2 = system: KM-20L2
KM12 = system: KM12
LXFL 529 = system: LXFL 529
M14 = system: M14
M19-MEL = system: M19-MEL
MOLT-4 = system: MOLT-4
Malme-3M = system: Malme-3M
NCI-H226 = system: NCI-H226
NCI-H23 = system: NCI-H23
NCI-H460 = system: NCI-H460
NCI-H522 = system: NCI-H522
OVCAR-3 = system: OVCAR-3
OVCAR-4 = system: OVCAR-4
OVCAR-5 = system: OVCAR-5
OVCAR-8 = system: OVCAR-8
RPMI-8226 = system: RPMI-8226
RXF 393 = system: RXF 393
RXF 631 = system: RXF 631
SF-268 = system: SF-268
SF-295 = system: SF-295
SF-539 = system: SF-539
SK-MEL-28 = system: SK-MEL-28
SK-MEL-2 = system: SK-MEL-2
SK-MEL-5 = system: SK-MEL-5
SK-OV-3 = system: SK-OV-3
SN12C = system: SN12C
SNB-19 = system: SNB-19
SNB-75 = system: SNB-75
SNB-78 = system: SNB-78
SR = system: SR
SW-620 = system: SW-620
TK-10 = system: TK-10
U-251 = system: U-251
UACC-257 = system: UACC-257
UACC-62 = system: UACC-62
UO-31 = system: UO-31
XF498 = system: XF498
DMS-114 = system: DMS-114
LOX IMVI = system: LOX IMVI

Structure (SMILES): N#CCC(=O)Nc1ccccc1O
- GI50 (786-0): > 100 µM (inactive)
- GI50 (A498): > 100 µM (inactive)
- GI50 (A549): > 100 µM (inactive)
- GI50 (ACHN): > 100 µM (inactive)
- GI50 (CAKI-1): > 100 µM (inactive)
- GI50 (CCRF-CEM): > 100 µM (inactive)
- GI50 (COLO 205): > 100 µM (inactive)
- GI50 (DLD-1): > 100 µM (inactive)
- GI50 (DMS-273): > 100 µM (inactive)
- GI50 (EKVX): > 100 µM (inactive)
- GI50 (HCC 2998): > 100 µM (inactive)
- GI50 (HCT-116): > 100 µM (inactive)
- GI50 (HCT-15): > 100 µM
- GI50 (HL-60): > 100 µM (inactive)
- GI50 (HOP-18): > 100 µM (inactive)
- GI50 (HOP-62): > 100 µM (inactive)
- GI50 (HOP-92): > 100 µM (inactive)
- GI50 (HT-29): > 100 µM (inactive)
- GI50 (IGROV-1): > 100 µM (inactive)
- GI50 (K562): > 100 µM (inactive)
- GI50 (KM-20L2): > 100 µM (inactive)
- GI50 (KM12): > 100 µM (inactive)
- GI50 (LXFL 529): > 100 µM (inactive)
- GI50 (M14): > 100 µM (inactive)
- GI50 (M19-MEL): > 100 µM (inactive)
- GI50 (MOLT-4): > 100 µM (inactive)
- GI50 (Malme-3M): > 100 µM (inactive)
- GI50 (NCI-H226): > 100 µM (inactive)
- GI50 (NCI-H23): > 100 µM (inactive)
- GI50 (NCI-H460): > 100 µM (inactive)
- GI50 (NCI-H522): > 100 µM (inactive)
- GI50 (OVCAR-3): > 100 µM (inactive)
- GI50 (OVCAR-4): > 100 µM (inactive)
- GI50 (OVCAR-5): > 100 µM (inactive)
- GI50 (OVCAR-8): > 100 µM (inactive)
- GI50 (RPMI-8226): > 100 µM (inactive)
- GI50 (RXF 393): > 100 µM (inactive)
- GI50 (RXF 631): > 100 µM (inactive)
- GI50 (SF-268): > 100 µM (inactive)
- GI50 (SF-295): > 100 µM (inactive)
- GI50 (SF-539): > 100 µM (inactive)
- GI50 (SK-MEL-28): > 100 µM (inactive)
- GI50 (SK-MEL-2): > 100 µM (inactive)
- GI50 (SK-MEL-5): > 100 µM (inactive)
- GI50 (SK-OV-3): > 100 µM (inactive)
- GI50 (SN12C): > 100 µM (inactive)
- GI50 (SNB-19): > 100 µM (inactive)
- GI50 (SNB-75): > 100 µM (inactive)
- GI50 (SNB-78): > 100 µM (inactive)
- GI50 (SR): > 100 µM (inactive)
- GI50 (SW-620): > 100 µM (inactive)
- GI50 (TK-10): > 100 µM (inactive)
- GI50 (U-251): > 100 µM (inactive)
- GI50 (UACC-257): > 100 µM (inactive)
- GI50 (UACC-62): > 100 µM (inactive)
- GI50 (UO-31): > 100 µM (inactive)
- GI50 (XF498): > 100 µM (inactive)

Structure (SMILES): Cc1nc2sccn2c1C(=O)N/N=C1\SCC(=O)N1C
- GI50 (786-0): > 100 µM (inactive)
- GI50 (A549): > 100 µM (inactive)
- GI50 (ACHN): > 100 µM (inactive)
- GI50 (CAKI-1): > 100 µM (inactive)
- GI50 (CCRF-CEM): > 100 µM (inactive)
- GI50 (COLO 205): > 100 µM (inactive)
- GI50 (DLD-1): > 100 µM (inactive)
- GI50 (DMS-114): > 100 µM (inactive)
- GI50 (DMS-273): > 100 µM (inactive)
- GI50 (EKVX): > 100 µM (inactive)
- GI50 (HCC 2998): > 100 µM (inactive)
- GI50 (HCT-116): > 100 µM (inactive)
- GI50 (HCT-15): > 100 µM
- GI50 (HL-60): > 100 µM (inactive)
- GI50 (HOP-18): 26.3 µM (inactive)
- GI50 (HOP-62): > 100 µM (inactive)
- GI50 (HOP-92): > 100 µM (inactive)
- GI50 (HT-29): > 100 µM (inactive)
- GI50 (IGROV-1): > 100 µM (inactive)
- GI50 (K562): > 100 µM (inactive)
- GI50 (KM-20L2): > 100 µM (inactive)
- GI50 (KM12): > 100 µM (inactive)
- GI50 (LOX IMVI): > 100 µM (inactive)
- GI50 (LXFL 529): > 100 µM (inactive)
- GI50 (M19-MEL): > 100 µM (inactive)
- GI50 (MOLT-4): > 100 µM (inactive)
- GI50 (Malme-3M): > 100 µM (inactive)
- GI50 (NCI-H226): > 100 µM (inactive)
- GI50 (NCI-H23): > 100 µM (inactive)
- GI50 (NCI-H460): > 100 µM (inactive)
- GI50 (NCI-H522): > 100 µM (inactive)
- GI50 (OVCAR-3): > 100 µM (inactive)
- GI50 (OVCAR-5): > 100 µM (inactive)
- GI50 (OVCAR-8): > 100 µM (inactive)
- GI50 (RPMI-8226): > 100 µM (inactive)
- GI50 (RXF 393): > 100 µM (inactive)
- GI50 (RXF 631): > 100 µM (inactive)
- GI50 (SF-268): > 100 µM (inactive)
- GI50 (SF-295): > 100 µM (inactive)
- GI50 (SF-539): > 100 µM (inactive)
- GI50 (SK-MEL-28): > 100 µM (inactive)
- GI50 (SK-MEL-2): > 100 µM (inactive)
- GI50 (SK-MEL-5): > 100 µM (inactive)
- GI50 (SK-OV-3): > 100 µM (inactive)
- GI50 (SN12C): > 100 µM (inactive)
- GI50 (SNB-19): > 100 µM (inactive)
- GI50 (SR): > 100 µM (inactive)
- GI50 (SW-620): > 100 µM (inactive)
- GI50 (TK-10): > 100 µM (inactive)
- GI50 (U-251): > 100 µM (inactive)
- GI50 (UACC-257): > 100 µM (inactive)
- GI50 (UACC-62): > 100 µM (inactive)
- GI50 (XF498): > 100 µM (inactive)

Structure (SMILES): CCCCCCc1cc(C(=O)Nc2ccc(Cl)cc2)nc(S)n1
- GI50 (A549): > 100 µM (inactive)
- GI50 (CAKI-1): > 100 µM (inactive)
- GI50 (CCRF-CEM): > 100 µM (inactive)
- GI50 (DLD-1): > 10 µM (inactive)
- GI50 (EKVX): > 100 µM (inactive)
- GI50 (HL-60): > 100 µM (inactive)
- GI50 (HOP-62): > 100 µM (inactive)
- GI50 (HOP-92): > 100 µM (inactive)
- GI50 (IGROV-1): > 100 µM (inactive)
- GI50 (K562): > 100 µM (inactive)
- GI50 (KM12): > 100 µM (inactive)
- GI50 (LXFL 529): > 100 µM (inactive)
- GI50 (M14): > 100 µM (inactive)
- GI50 (MOLT-4): > 100 µM (inactive)
- GI50 (NCI-H226): > 10 µM (inactive)
- GI50 (NCI-H23): > 100 µM (inactive)
- GI50 (NCI-H460): > 10 µM (inactive)
- GI50 (NCI-H522): > 100 µM (inactive)
- GI50 (OVCAR-4): > 100 µM (inactive)
- GI50 (OVCAR-5): 31.1 µM (inactive)
- GI50 (RPMI-8226): > 100 µM (inactive)
- GI50 (RXF 393): > 10 µM (inactive)
- GI50 (RXF 631): > 100 µM (inactive)
- GI50 (SF-539): > 100 µM (inactive)
- GI50 (SK-MEL-2): > 100 µM (inactive)
- GI50 (SK-MEL-5): > 100 µM (inactive)
- GI50 (SK-OV-3): > 100 µM (inactive)
- GI50 (SN12C): > 100 µM (inactive)
- GI50 (SR): > 100 µM (inactive)
- GI50 (SW-620): > 100 µM (inactive)
- GI50 (U-251): > 100 µM (inactive)
- GI50 (UACC-257): > 100 µM (inactive)
- GI50 (UO-31): > 100 µM (inactive)
- GI50 (XF498): > 10 µM (inactive)
